According to patent US20250263753A1, “BRIDGED CYCLE-BASED INHIBITORS OF DNA-DEPENDENT PROTEIN KINASE AND COMPOSITIONS AND APPLICATION IN GENE EDITING” (Juno Therapeutics, Inc., priority 2023, published 2025):
Where two headings read alike, the source gives them in different places.

Columns and labels:
[1] = biological target: PI3Kα (His-PIK3CA/PIK3R1, p110 alpha/p85 alpha) (Homo sapiens (Human), UniProt P42336); assay: PI3Kα biochemical assay (HTRF/FRET probe); type: binding; conditions: class symbol
Description: Phosphoinositide 3-kinase α (PI3Kα) Biochemical Assay: A solution was prepared containing 0.2 nM Anti-HIS-Terbium (Cisbio, 64CUSTAZU), 3.7 nM designed-probe and 1.0 nM His-PIK3CA/PIK3R1 (p110 alpha/p85 alpha) in FRET Buffer (20 mM HEPES, 10 mM MgCl2, 0.015% Brij-35, 4 mM DTT, 0.05 mg/mL BSA).

ATM = ATM (Homo sapiens (Human), UniProt Q13315); assay: ATM biochemical assay (Reaction Biology HTRF kinase assay, 10 μM ATP)
ATM, sequence (Q13315 whole entry, the tested form may be a part): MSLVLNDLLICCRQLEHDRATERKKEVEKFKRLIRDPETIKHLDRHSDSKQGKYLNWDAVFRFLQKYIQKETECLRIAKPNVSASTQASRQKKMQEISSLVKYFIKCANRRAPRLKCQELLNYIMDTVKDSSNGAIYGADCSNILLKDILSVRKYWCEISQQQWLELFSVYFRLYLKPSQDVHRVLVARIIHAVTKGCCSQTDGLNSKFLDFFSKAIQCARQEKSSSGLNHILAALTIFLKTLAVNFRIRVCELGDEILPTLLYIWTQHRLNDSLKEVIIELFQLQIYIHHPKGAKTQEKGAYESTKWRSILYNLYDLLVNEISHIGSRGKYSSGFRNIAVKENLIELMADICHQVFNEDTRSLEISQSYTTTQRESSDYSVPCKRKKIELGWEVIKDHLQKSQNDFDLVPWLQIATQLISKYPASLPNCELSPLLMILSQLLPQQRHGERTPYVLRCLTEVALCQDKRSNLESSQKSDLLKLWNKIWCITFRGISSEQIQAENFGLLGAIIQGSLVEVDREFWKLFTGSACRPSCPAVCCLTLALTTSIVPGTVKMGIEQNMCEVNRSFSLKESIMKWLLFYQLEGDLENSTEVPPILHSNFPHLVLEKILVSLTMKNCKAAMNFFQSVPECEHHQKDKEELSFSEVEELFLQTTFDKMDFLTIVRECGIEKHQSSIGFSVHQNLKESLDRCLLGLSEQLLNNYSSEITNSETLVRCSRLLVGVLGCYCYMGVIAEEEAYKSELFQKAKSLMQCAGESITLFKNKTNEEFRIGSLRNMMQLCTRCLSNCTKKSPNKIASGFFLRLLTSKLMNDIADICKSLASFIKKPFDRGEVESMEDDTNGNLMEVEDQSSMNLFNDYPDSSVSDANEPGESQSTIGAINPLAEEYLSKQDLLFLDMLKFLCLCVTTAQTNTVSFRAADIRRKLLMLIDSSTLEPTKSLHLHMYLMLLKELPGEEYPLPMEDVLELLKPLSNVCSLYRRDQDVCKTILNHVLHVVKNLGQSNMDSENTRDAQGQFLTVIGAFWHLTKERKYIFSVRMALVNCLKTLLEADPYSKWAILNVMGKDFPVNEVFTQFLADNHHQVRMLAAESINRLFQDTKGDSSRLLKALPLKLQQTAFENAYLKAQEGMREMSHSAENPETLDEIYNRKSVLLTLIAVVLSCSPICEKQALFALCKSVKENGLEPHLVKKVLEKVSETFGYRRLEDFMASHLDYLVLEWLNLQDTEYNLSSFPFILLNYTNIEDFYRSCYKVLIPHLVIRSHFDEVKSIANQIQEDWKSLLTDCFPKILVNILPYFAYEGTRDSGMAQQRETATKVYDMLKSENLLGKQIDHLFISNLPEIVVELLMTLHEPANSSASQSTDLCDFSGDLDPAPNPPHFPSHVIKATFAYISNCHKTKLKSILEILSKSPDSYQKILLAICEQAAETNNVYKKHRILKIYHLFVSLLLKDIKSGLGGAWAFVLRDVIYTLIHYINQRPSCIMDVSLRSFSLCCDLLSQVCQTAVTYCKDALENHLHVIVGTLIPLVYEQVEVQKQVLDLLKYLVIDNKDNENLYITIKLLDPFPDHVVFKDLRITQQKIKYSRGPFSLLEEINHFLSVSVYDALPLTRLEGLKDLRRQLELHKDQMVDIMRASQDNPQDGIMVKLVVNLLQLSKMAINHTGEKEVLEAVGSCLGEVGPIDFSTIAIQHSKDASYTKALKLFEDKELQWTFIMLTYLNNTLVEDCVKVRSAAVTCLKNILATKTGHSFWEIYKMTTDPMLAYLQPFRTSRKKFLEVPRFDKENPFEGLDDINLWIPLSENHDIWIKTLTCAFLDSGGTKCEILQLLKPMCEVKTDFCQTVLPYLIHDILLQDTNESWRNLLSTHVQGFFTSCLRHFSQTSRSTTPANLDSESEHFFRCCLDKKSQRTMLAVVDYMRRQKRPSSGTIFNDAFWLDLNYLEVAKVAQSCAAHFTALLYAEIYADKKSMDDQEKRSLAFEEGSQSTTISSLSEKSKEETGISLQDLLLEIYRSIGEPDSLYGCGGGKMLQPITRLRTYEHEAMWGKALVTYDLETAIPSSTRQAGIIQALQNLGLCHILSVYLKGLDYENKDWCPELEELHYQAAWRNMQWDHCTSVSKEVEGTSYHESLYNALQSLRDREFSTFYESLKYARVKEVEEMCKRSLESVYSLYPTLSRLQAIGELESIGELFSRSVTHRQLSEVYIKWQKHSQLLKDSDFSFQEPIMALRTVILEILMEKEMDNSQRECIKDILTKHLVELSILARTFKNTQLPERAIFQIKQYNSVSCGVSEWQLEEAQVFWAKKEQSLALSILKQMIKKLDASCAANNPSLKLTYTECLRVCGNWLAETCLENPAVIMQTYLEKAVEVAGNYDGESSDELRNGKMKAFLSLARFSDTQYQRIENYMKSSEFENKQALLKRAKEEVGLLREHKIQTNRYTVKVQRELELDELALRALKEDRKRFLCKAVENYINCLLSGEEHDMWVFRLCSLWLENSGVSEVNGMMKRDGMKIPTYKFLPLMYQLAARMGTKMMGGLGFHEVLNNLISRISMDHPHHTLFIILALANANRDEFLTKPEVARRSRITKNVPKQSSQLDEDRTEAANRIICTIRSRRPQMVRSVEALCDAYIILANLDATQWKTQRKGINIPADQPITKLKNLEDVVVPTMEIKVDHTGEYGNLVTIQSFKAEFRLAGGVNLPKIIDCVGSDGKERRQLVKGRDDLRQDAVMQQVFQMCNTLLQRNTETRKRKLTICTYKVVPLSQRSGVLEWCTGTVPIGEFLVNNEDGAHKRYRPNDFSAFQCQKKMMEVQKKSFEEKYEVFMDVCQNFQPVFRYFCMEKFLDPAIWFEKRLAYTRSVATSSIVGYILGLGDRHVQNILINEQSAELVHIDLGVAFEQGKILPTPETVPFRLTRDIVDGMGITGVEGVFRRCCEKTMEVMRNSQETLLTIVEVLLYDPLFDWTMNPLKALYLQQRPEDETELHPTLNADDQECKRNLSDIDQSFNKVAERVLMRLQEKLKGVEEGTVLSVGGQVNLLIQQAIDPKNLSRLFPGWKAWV
Procedure, shortened: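 HTRF kinase assay with N-terminal GST-tagged human p53 (aa2-393) substrate, 10 μM ATP, in 50 mM Hepes pH 7.5, 10 mM MnCl2, 1% DMSO. Enzyme preincubated with compound 30 min, reaction 2 h at room temperature. pS15 phosphorylation read by Eu-cryptate anti-p53-pS15/anti-GST-d2 HTRF (615/665 nm).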

[2] = biological target: PI3Kδ (His-PIK3CD/PIK3R1, p110 delta/p85 alpha) (Homo sapiens (Human), UniProt O00329); assay: PI3Kδ biochemical assay (HTRF/FRET probe); type: binding; conditions: class symbol
PI3Kδ (His-PIK3CD/PIK3R1, p110 delta/p85 alpha), sequence (O00329 whole entry, species assumed): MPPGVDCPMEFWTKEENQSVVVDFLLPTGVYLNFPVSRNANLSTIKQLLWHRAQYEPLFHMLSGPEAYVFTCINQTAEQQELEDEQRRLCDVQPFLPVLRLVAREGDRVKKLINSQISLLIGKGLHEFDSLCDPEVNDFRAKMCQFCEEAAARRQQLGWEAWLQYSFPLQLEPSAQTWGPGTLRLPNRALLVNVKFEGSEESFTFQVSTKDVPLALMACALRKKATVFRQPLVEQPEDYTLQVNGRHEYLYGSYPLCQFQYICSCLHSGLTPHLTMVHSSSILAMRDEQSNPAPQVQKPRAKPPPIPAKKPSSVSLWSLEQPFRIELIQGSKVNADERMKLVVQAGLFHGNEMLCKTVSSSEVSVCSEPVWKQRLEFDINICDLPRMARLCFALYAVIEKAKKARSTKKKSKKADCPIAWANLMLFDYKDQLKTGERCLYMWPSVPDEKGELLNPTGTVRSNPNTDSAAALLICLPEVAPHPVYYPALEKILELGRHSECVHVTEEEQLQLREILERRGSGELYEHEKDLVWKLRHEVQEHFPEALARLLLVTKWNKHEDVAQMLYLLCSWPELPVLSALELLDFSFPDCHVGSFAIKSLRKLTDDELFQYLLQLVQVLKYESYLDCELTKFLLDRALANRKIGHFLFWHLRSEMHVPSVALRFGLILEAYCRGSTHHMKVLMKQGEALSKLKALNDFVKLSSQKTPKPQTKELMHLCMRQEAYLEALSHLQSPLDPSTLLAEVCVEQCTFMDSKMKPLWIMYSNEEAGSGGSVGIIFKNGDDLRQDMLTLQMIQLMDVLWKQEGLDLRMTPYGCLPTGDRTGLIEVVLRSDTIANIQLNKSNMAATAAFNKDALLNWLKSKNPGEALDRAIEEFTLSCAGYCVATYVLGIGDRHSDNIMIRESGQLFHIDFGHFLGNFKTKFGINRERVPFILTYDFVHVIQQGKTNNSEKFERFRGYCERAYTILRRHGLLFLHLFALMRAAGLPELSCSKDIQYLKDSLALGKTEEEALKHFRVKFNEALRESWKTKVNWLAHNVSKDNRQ
PI3Kδ (His-PIK3CD/PIK3R1, p110 delta/p85 alpha), sequence (P27986 whole entry partner, species assumed): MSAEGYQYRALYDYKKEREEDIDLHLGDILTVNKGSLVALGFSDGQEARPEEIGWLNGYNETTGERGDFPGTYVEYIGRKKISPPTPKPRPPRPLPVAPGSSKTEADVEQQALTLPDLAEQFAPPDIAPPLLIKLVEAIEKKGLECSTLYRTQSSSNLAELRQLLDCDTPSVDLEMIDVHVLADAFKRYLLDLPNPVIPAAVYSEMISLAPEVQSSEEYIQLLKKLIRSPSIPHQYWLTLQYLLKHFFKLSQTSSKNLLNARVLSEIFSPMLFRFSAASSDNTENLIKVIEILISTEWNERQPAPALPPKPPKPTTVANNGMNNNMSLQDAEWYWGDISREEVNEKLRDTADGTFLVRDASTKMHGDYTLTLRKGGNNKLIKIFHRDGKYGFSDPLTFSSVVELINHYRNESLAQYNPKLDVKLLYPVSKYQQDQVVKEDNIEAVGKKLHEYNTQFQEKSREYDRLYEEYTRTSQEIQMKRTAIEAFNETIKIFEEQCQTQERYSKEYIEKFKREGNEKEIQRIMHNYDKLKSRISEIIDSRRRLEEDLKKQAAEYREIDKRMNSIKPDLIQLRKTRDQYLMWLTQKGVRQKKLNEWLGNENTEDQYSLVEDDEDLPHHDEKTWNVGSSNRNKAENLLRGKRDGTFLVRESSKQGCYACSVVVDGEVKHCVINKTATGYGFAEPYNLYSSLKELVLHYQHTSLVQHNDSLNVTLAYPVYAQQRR
Description: Phosphoinositide 3-kinase (PI3K) Biochemical Assay: A solution was prepared containing 0.2 nM Anti-HIS-Terbium (Cisbio, 64CUSTAZU), 40 nM designed-probe and 1.0 nM His-PIK3CD/PIK3R1 (p110 delta/p85 alpha) in FRET Buffer (20 mM HEPES, 10 mM MgCl2, 0.015% Brij-35, 4 mM DTT, 0.05 mg/mL BSA).

DNA-PK = DNA-PK (Homo sapiens (Human), UniProt P78527); assay: DNA-PK biochemical assay (Reaction Biology HotSpot kinase assay, 10 μM ATP)
Procedure, shortened: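 Radiometric 33P-ATP kinase reaction in 20 mM Hepes pH 7.5, 10 mM MgCl2, 1 mM EGTA, 2 mM DTT, 1% DMSO. Compound preincubated with kinase and substrate 20 min at room temperature, then reaction run 2 h at room temperature after ATP addition. Activity read by P81 filter binding.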

[3] = read-out: ATM HTRF 10 μM ATP IC50, class symbol
[4] = read-out: DNA-PK HotSpot 10 μM ATP IC50, class symbol

| SMILES | IC50 [1] [nM] | IC50 (ATM; [3]) [nM] | IC50 [2] [nM] | IC50 (DNA-PK; [4]) [nM] | IC50 (ATM; class symbol) [nM] | IC50 (DNA-PK; class symbol) [nM] |
| --- | --- | --- | --- | --- | --- | --- |
| Cc1cc(-c2cnco2)c(F)cc1Nc1ncc2c(n1)n(C13CCC(O)(CC1)C3)c(=O)n2C [Compound 36, 2-((5-fluoro-2-methyl-4-(oxazol-5-yl)phenyl)amino)-9-(4-hydroxybicyclo[2.2.1]heptan-1-yl)-7-methyl-7,9-dihydro-8H-purin-8-one] | 100 to 1000 | < 1 | ≥ 1000 | < 1 |  |  |
| Cc1cc2nccnc2cc1Nc1ncc2c(n1)n(C13CCC(O)(CC1)C3)c(=O)n2C [Compound 4, 9-(4-hydroxybicyclo[2.2.1]heptan-1-yl)-7-methyl-2-((7-methylquinoxalin-6-yl)amino)-7,9-dihydro-8H-purin-8-one] | 100 to 1000 |  | 100 to 1000 | < 1 | 10 to 100 |  |
| Cc1cc2c(cc1Nc1ncc3c(n1)n(C14CC(C(F)(F)F)(C1)C4)c(=O)n3C)OCO2 [Compound 19, 7-methyl-2-((6-methylbenzo[d][1,3]dioxol-5-yl)amino)-9-(3-(trifluoromethyl)bicyclo[1.1.1]pentan-1-yl)-7,9-dihydro-8H-purin-8-one] | ≥ 1000 |  | ≥ 1000 |  | 100 to 1000 | 1 to 10 |
| Cc1cc2c(cc1Nc1ncc3c(n1)n(C14CC(F)(C1)C4)c(=S)n3C)OCO2 [Compound 35, 9-(3-fluorobicyclo[1.1.1]pentan-1-yl)-7-methyl-2-((6-methylbenzo[d][1,3]dioxol-5-yl)amino)-7,9-dihydro-8H-purine-8-thione] | ≥ 1000 | ≥ 1000 | ≥ 1000 |  |  | 100 to 1000 |
| COCC12CC(n3c(=O)n(C)c4cnc(Nc5cn6ncnc6cc5C)nc43)(C1)C2 [Compound 20, 9-(3-(methoxymethyl)bicyclo[1.1.1]pentan-1-yl)-7-methyl-2-((7-methyl-[1,2,4]triazolo[1,5-a]pyridin-6-yl)amino)-7,9-dihydro-8H-purin-8-one] | 100 to 1000 |  | ≥ 1000 |  | 1 to 10 | 1 to 10 |
| Cc1cc2c(cc1Nc1ncc3c(n1)n(C14CC(CC#N)(C1)C4)c(=O)n3C)OCO2 [Compound 23, 2-(3-(7-methyl-2-((6-methylbenzo[d][1,3]dioxol-5-yl)amino)-8-oxo-7,8-dihydro-9H-purin-9-yl)bicyclo[1.1.1]pentan-1-yl)acetonitrile] | 100 to 1000 |  | ≥ 1000 |  | 10 to 100 | 1 to 10 |
| COC12CCC(n3c(=O)n(C)c4cnc(Nc5cc6nsnc6cc5C)nc43)(CC1)C2 [Compound 8, 9-(4-methoxybicyclo[2.2.1]heptan-1-yl)-7-methyl-2-((6-methylbenzo[c][1,2,5]thiadiazol-5-yl)amino)-7,9-dihydro-8H-purin-8-one] | 10 to 100 |  | 100 to 1000 | < 1 | 10 to 100 |  |
| Cc1cc2nccnc2cc1Nc1ncc2c(n1)n(C13CC(F)(C1)C3)c(=O)n2C [Compound 15, 9-(3-fluorobicyclo[1.1.1]pentan-1-yl)-7-methyl-2-((7-methylquinoxalin-6-yl)amino)-7,9-dihydro-8H-purin-8-one] | 100 to 1000 |  | ≥ 1000 |  | 100 to 1000 | 1 to 10 |
| Cc1cc(-c2cnn(C)c2)c(F)cc1Nc1ncc2c(n1)n(C13CCC(O)(CC1)C3)c(=O)n2C [Compound 37, 2-((5-fluoro-2-methyl-4-(1-methyl-1H-pyrazol-4-yl)phenyl)amino)-9-(4-hydroxybicyclo[2.2.1]heptan-1-yl)-7-methyl-7,9-dihydro-8H-purin-8-one] | 100 to 1000 |  | ≥ 1000 | < 1 | 1 to 10 |  |
| Cc1cc2c(cc1Nc1ncc3c(n1)n(C14CCC(O)(CC1)CC4)c(=O)n3C)OCO2 [Compound 27, 9-(4-hydroxybicyclo[2.2.2]octan-1-yl)-7-methyl-2-((6-methylbenzo[d][1,3]dioxol-5-yl)amino)-7,9-dihydro-8H-purin-8-one] | 10 to 100 |  | ≥ 1000 | < 1 | 10 to 100 |  |
| COC12CCC(n3c(=O)n(C)c4cnc(Nc5cc(F)c(-c6cnn(C)c6)cc5C)nc43)(C1)C2 [Compound 39, 2-((5-fluoro-2-methyl-4-(1-methyl-1H-pyrazol-4-yl)phenyl)amino)-9-(4-methoxybicyclo[2.1.1]hexan-1-yl)-7-methyl-7,9-dihydro-8H-purin-8-one] | 100 to 1000 |  | ≥ 1000 |  | 10 to 100 | 10 to 100 |
| COC12CCC(n3c(=O)n(C)c4cnc(Nc5cn6ncnc6cc5C)nc43)(CC1)CC2 [Compound 25, 9-(4-methoxybicyclo[2.2.2]octan-1-yl)-7-methyl-2-((7-methyl-[1,2,4]triazolo[1,5-a]pyridin-6-yl)amino)-7,9-dihydro-8H-purin-8-one] | 100 to 1000 |  | 100 to 1000 | < 1 | 1 to 10 |  |

Other lines, results leading:

| IC50 [1] [nM] | IC50 (ATM; [3]) [nM] | IC50 [2] [nM] | IC50 (DNA-PK; [4]) [nM] | IC50 (ATM; class symbol) [nM] | IC50 (DNA-PK; class symbol) [nM] | SMILES |
| --- | --- | --- | --- | --- | --- | --- |
| 100 to 1000 |  | 100 to 1000 | < 1 | 10 to 100 |  | [2H]C([2H])([2H])n1c(=O)n(C23CCC(O)(CC2)C3)c2nc(Nc3cn4ncnc4cc3C)ncc21 [Compound 77, 9-(4-hydroxybicyclo[2.2.1]heptan-1-yl)-7-(methyl-d3)-2-((7-methyl-[1,2,4]triazolo[1,5-a]pyridin-6-yl)amino)-7,9-dihydro-8H-purin-8-one] |
| ≥ 1000 | ≥ 1000 | ≥ 1000 |  |  | 10 to 100 | Cc1cc2c(cc1Nc1ncc3c(n1)N(C14CCC(O)(CC1)C4)CC(=O)N3C)OCO2 [Compound 52, 8-{4-Hydroxybicyclo[2.2.1]heptan-1-yl}-5-methyl-2-[(6-methyl-2H-1,3-benzodioxol-5-yl)amino]-5,6,7,8-tetrahydropteridin-6-one] |
| 100 to 1000 |  | 100 to 1000 | < 1 | 10 to 100 |  | Cc1cc2nccnc2cc1Nc1ncc2c(C)nn(C34CC(C3)C4)c2n1 [Compound 49, N-(1-(bicyclo[1.1.1]pentan-1-yl)-3-methyl-1H-pyrazolo[3,4-d]pyrimidin-6-yl)-7-methylquinoxalin-6-amine] |
| 100 to 1000 |  | 100 to 1000 | < 1 | 10 to 100 |  | Cc1cc2nccnc2cc1Nc1ncc2c(n1)N(C13CCC(O)(CC1)C3)CC(=O)N2C [Compound 59, 8-(4-hydroxybicyclo[2.2.1]heptan-1-yl)-5-methyl-2-((7-methylquinoxalin-6-yl)amino)-7,8-dihydropteridin-6(5H)-one] |
| 100 to 1000 |  | ≥ 1000 |  | 10 to 100 | 1 to 10 | Cc1cc(-c2cnn(C)c2)ncc1Nc1ncc2c(n1)N(C13CC(F)(C1)C3)C(=O)C21CC1 [Compound 75, 7′-(3-fluorobicyclo[1.1.1]pentan-1-yl)-2′-((4-methyl-6-(1-methyl-1H-pyrazol-4-yl)pyridin-3-yl)amino)spiro[cyclopropane-1,5′-pyrrolo[2,3-d]pyrimidin]-6′(7′H)-one] |
| 10 to 100 |  | 100 to 1000 | < 1 | 1 to 10 |  | Cc1cc2nnccc2cc1Nc1ncc2c(n1)N(C13CCC(O)(CC1)C3)CC(=O)N2C [Compound 61, 8-(4-hydroxybicyclo[2.2.1]heptan-1-yl)-5-methyl-2-((7-methylcinnolin-6-yl)amino)-7,8-dihydropteridin-6(5H)-one] |
| 100 to 1000 |  | ≥ 1000 |  | 10 to 100 | 1 to 10 | Cc1cc(-c2cnco2)ncc1Nc1ncc2c(n1)N(C13CC(F)(C1)C3)C(=O)C21CC1 [Compound 74, 7′-(3-fluorobicyclo[1.1.1]pentan-1-yl)-2′-((4-methyl-6-(oxazol-5-yl)pyridin-3-yl)amino)spiro[cyclopropane-1,5′-pyrrolo[2,3-d]pyrimidin]-6′(7′H)-one] |
